Common to all, as to settings: Cardiac atrium
For assay [1], the species on record is Cavia porcellus. Description: Effect on rate of atrial contractions induced by PTX-B in guinea pig (control value). The class given is functional, organism-based.
The species named for assay [2] is Cavia porcellus. Description: Effect on force of atrial contractions induced by PTX-B in guinea pig. The class given is functional, organism-based.
The species named for assay [3] is Cavia porcellus. Description: Effect on force of atrial contractions induced by PTX-B in guinea pig (control value). It counts as functional.
Assay [4] is filed under the species Cavia porcellus. Description: Effect on rate of atrial contractions induced by PTX-B in guinea pig. The class given is functional, organism-based.

The term IC50 denotes the midpoint of a concentration-inhibition curve. A low value points to greater potency in that assay. Consider `COC(=O)C1=C(C)NC(C)=C(C(=O)OC)C1c1ccccc1[N+](=O)[O-]` [NIFEDIPINE], for which the 50% inhibitory concentration (IC50) in the assay filed under Cavia porcellus [1] came to 0.6 µM; in the assay filed under Cavia porcellus [2] it was 6 µM; in the assay listed under Cavia porcellus [3], 0.4 µM; in the assay listed under Cavia porcellus [4], 12 µM.
In the case of `COc1ccc(CCN(C)CCCC(C#N)(c2ccc(OC)c(OC)c2)C(C)C)cc1OC` (stereo not drawn) [VERAPAMIL], the IC50 was 0.7 µM in the assay filed under Cavia porcellus [1], 10 µM in the assay listed under Cavia porcellus [2], 0.8 µM in the assay filed under Cavia porcellus [3] and 16 µM in the assay listed under Cavia porcellus [4].

These data come from ChEMBL document CHEMBL1122977, “A new class of cardiotonic agents: structure-activity correlations for natural and synthetic analogues of the alkaloid A new class of A new class of cardiotonic agents: structure-activity correlations for natural and synthetic analogues of the alkaloid pumiliotoxin B …” (J Med Chem, 1985).
